Results reported in patent publication US20050137220A1 (Pharmacia Corporation, priority 2003, published 2005).
Where a name gives a salt, the structure may show the parent alone. Read-outs that look alike come from different tables or passages of the source.

Tests used:
MK-2 = MK-2 (Homo sapiens, UniProt P49137); assay: Determination of MK-2 IC50 (phosphorylation of HSP-peptide, anion exchange resin capture assay); format: biochemical; details: additional values are replicate IC50 experiments; mixture of stereoisomers implied unless otherwise noted; read-out: MK-2 Avg. IC50
Chain of MK-2 (P49137 whole entry, species assumed): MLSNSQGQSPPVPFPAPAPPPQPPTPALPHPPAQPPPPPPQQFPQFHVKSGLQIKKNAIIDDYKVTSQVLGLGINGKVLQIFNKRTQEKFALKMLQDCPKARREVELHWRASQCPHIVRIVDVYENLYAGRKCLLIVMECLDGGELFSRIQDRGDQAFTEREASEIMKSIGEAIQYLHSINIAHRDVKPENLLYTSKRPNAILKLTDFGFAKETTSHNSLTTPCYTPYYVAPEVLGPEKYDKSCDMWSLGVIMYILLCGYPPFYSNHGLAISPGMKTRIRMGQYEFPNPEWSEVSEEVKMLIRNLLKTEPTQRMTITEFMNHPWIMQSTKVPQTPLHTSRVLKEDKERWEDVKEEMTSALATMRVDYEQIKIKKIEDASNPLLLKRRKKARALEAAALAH

U937 cells = assay: U937 Cell TNFα Release Assay; format: cell-based, human; details: mixture of stereoisomers implied unless otherwise noted
[1] = Homo sapiens, U-937, LPS-stimulated differentiated U937 cells, TNFα by ELISA, read-out: TNF Release Assay Avg. IC50
[2] = Homo sapiens, U-937, read-out: TNF Release Assay Avg. IC50, LPS-stimulated differentiated U937 cells, TNFα by ELISA
[3] = Homo sapiens, U-937, 4 h, LPS-stimulated differentiated U937 cells, TNFα by ELISA, read-out: TNF Release Assay Avg. IC50
[4] = Homo sapiens, U-937, 4 h, read-out: TNF Release Assay Avg. IC50, LPS-stimulated differentiated U937 cells, TNFα by ELISA

`COc1ccc2[nH]c3c(c2c1)CCC/C3=N\O` (single isomer, unassigned) [Example 75, 6-methoxy-2,3,4,9-tetrahydro-1H-carbazol-1-one oxime] was tested, and the IC50 (MK-2) was 16.5 µM and the IC50 (U937 cells; [1]) was 13.9 µM.

`COc1ccc2[nH]c3c(c2c1)CC(CCCNCCc1ccccc1)NC3=O` (stereo not drawn) [Example 18, trifluoroacetate] gave an IC50 (MK-2) of 2.03 µM and an IC50 (U937 cells; [2]) of 23.7 µM.

For `COc1ccc2[nH]c3c(c2c1)CCC/C3=N\O` [Example 19, (1E)-6-methoxy-2,3,4,9-tetrahydro-1H-carbazol-1-one oxime], the IC50 (MK-2) was 2.1 µM and the IC50 (U937 cells; [1]) was 1.89 µM.

Work on `COc1ccc2[nH]c3c(c2c1)CCC/C3=N/O` [Example 25, (1Z)-6-methoxy-2,3,4,9-tetrahydro-1H-carbazol-1-one oxime] yielded an IC50 (MK-2) of 3.1 µM and an IC50 (U937 cells; [1]) of 2.18 µM.

`COc1ccc2[nH]c3c(c2c1)CC(CCCNCCCc1ccccc1)NC3=O` (stereo not drawn) [Example 27, 6-methoxy-3-{3-[(3-phenylpropyl)amino]propyl}-2,3,4,9-tetrahydro-1H-beta-carbolin-1-one trifluoroacetate] showed an IC50 (MK-2) of 3.24 µM and an IC50 (U937 cells; [1]) of 8.54 µM.

`COC(=O)c1cccc2c3c([nH]c12)CCNC3=O` [Example 29, methyl 1-oxo-2,3,4,5-tetrahydro-1H-pyrido[4,3-b]indole-6-carboxylate] was tested, and the IC50 (MK-2) was 3.52 µM and the IC50 (U937 cells; [3]) was 42.4 µM.

`COc1ccc2[nH]c3c(c2c1)CCCNC3=O` [Example 30, 7-methoxy-3,4,5,10-tetrahydroazepino[3,4-b]indol-1(2H)-one hydrochloride] was tested, and the IC50 (MK-2) was 3.6 µM and the IC50 (U937 cells; [3]) was 2.66 µM.

For `COc1ccc2c3c([nH]c2c1)C(C(=O)O)NCC3` (stereo not drawn) [Example 34, 7-methoxy-2,3,4,9-tetrahydro-1H-beta-carboline-1-carboxylic acid], the IC50 (MK-2) was 4.52 µM and the IC50 (U937 cells; [3]) was greater than 100 µM.

`COc1ccc2[nH]c3c(c2c1)CC(CCCN)NC3=O` (stereo not drawn) [Example 38, 3-(3-aminopropyl)-6-methoxy-2,3,4,9-tetrahydro-1H-beta-carbolin-1-one trifluoroacetate] gave an IC50 (MK-2) of 5.5 µM and an IC50 (U937 cells; [1]) of 36.7 µM.

`COc1ccc2[nH]c3c(c2c1)CCCCC3=NO` [Example 49] was tested, and the IC50 (MK-2) was 6.9 µM and the IC50 (U937 cells; [1]) was 2.89 µM.

For `CCOC(=O)COc1ccc2[nH]c3c(c2c1)CCNC3C(=O)O` (stereo not drawn) [Example 53, 6-(2-ethoxy-2-oxoethoxy)-2,3,4,9-tetrahydro-1H-beta-carboline-1-carboxylic acid trifluoroacetate hydrate], the IC50 (MK-2) was 8 µM and the IC50 (U937 cells; [3]) was greater than 100 µM.

Work on `COc1ccc2[nH]c3c(c2c1)CC(C)(C)NC3C(=O)O` (stereo not drawn) [Example 54, 6-methoxy-3,3-dimethyl-2,3,4,9-tetrahydro-1H-beta-carboline-1-carboxylic acid] yielded an IC50 (MK-2) of 8.39 µM and an IC50 (U937 cells; [3]) greater than 100 µM.

`CCCC1CNC(C(=O)O)c2[nH]c3ccc(OC)cc3c21` (stereo not drawn) [Example 55, 6-methoxy-4-propyl-2,3,4,9-tetrahydro-1H-beta-carboline-1-carboxylic acid] showed an IC50 (MK-2) of 8.47 µM and an IC50 (U937 cells; [4]) greater than 100 µM.

Compound `COC(=O)C(Oc1ccc2[nH]c3c(c2c1)CCNC3C(=O)O)c1ccccc1` (stereo not drawn) [Example 57, 6-(2-methoxy-2-oxo-1-phenylethoxy)-2,3,4,9-tetrahydro-1H-beta-carboline-1-carboxylic acid] has an IC50 (MK-2) of 9.45 µM and an IC50 (U937 cells; [3]) of 97.3 µM.

Compound `CCCCOc1ccc2[nH]c3c(c2c1)CCNC3C(=O)O` (stereo not drawn) [Example 60, 6-butoxy-2,3,4,9-tetrahydro-1H-beta-carboline-1-carboxylic acid] has an IC50 (MK-2) of 10.1 µM and an IC50 (U937 cells; [3]) greater than 100 µM.

Work on `COc1ccc2[nH]c3c(c2c1)CC(CCCNCc1ccccc1)NC3=O` (stereo not drawn) [Example 62, 3-[3-(benzylamino)propyl]-6-methoxy-2,3,4,9-tetrahydro-1H-beta-carbolin-1-one trifluoroacetate] yielded an IC50 (MK-2) of 10.5 µM and an IC50 (U937 cells; [1]) of 24.9 µM.

`COc1ccc2[nH]c3c(c2c1)C(C(F)(F)F)CNC3C(=O)O` (stereo not drawn) [Example 66, 6-methoxy-4-(trifluoromethyl)-2,3,4,9-tetrahydro-1H-beta-carboline-1-carboxylic acid] showed an IC50 (MK-2) of 13.8 µM and an IC50 (U937 cells; [3]) of 41.3 µM.

In the case of `COc1ccc2[nH]c3c(c2c1)CCNC3=O` [Example 69, 6-methoxy-2,3,4,9-tetrahydro-1H-beta-carbolin-1-one], the IC50 (MK-2) is reported as 15 µM and the IC50 (U937 cells; [1]) is reported as 45.7 µM.

Compound `COC(=O)COc1ccc2[nH]c3c(c2c1)CCNC3C(=O)O` (stereo not drawn) [Example 70, 6-(2-methoxy-2-oxoethoxy)-2,3,4,9-tetrahydro-1H-beta-carboline-1-carboxylic acid trifluoroacetate hydrate] has an IC50 (MK-2) of 15.3 µM and an IC50 (U937 cells; [3]) greater than 100 µM.

Work on `O=C(O)C1NCCc2c1[nH]c1ccc(OCc3ccccc3Cl)cc21` (stereo not drawn) [Example 72, 6-[(2-chlorobenzyl)oxy]-2,3,4,9-tetrahydro-1H-beta-carboline-1-carboxylic acid trifluoroacetate] yielded an IC50 (MK-2) of 15.5 µM and an IC50 (U937 cells; [3]) of 7.68 µM.

In the case of `COc1ccc2[nH]c3c(c2c1)C(C)(C)CNC3C(=O)O` (stereo not drawn) [Example 73, 6-methoxy-4,4-dimethyl-2,3,4,9-tetrahydro-1H-beta-carboline-1-carboxylic acid], the IC50 (MK-2) is reported as 15.8 µM and the IC50 (U937 cells; [3]) is reported as greater than 100 µM.

Compound `O=C(O)C1NCCc2c1[nH]c1ccc(OCCCCl)cc21` (stereo not drawn) [Example 76, 6-(3-chloropropoxy)-2,3,4,9-tetrahydro-1H-beta-carboline-1-carboxylic acid hydrochloride] has an IC50 (MK-2) of 16.7 µM and an IC50 (U937 cells; [3]) greater than 100 µM.

`O/N=C1\CCCc2c1[nH]c1ccc(I)cc21` [Example 77, 6-iodo-2,3,4,9-tetrahydro-1H-carbazol-1-one oxime] showed an IC50 (MK-2) of 17 µM and an IC50 (U937 cells; [1]) of 23.2 µM.

`COc1ccc2[nH]c3c(c2c1)CCC(C)/C3=N/O` (stereo not drawn) [Example 78, 6-methoxy-2-methyl-2,3,4,9-tetrahydro-1H-carbazol-1-one oxime] showed an IC50 (MK-2) of 17 µM and an IC50 (U937 cells; [1]) of 1.59 µM.

`O=C(O)C1NCCc2c1[nH]c1ccc(OCCCCCl)cc21` (stereo not drawn) [Example 79, 6-(4-chlorobutoxy)-2,3,4,9-tetrahydro-1H-beta-carboline-1-carboxylic acid hydrochloride] gave an IC50 (MK-2) of 17.4 µM and an IC50 (U937 cells; [3]) greater than 100 µM.

`O=C(O)C1NCCc2c1[nH]c1ccc(OCc3cccc(Cl)c3)cc21` (stereo not drawn) [Example 80, 6-[(3-chlorobenzyl)oxy]-2,3,4,9-tetrahydro-1H-beta-carboline-1-carboxylic acid] gave an IC50 (MK-2) of 17.9 µM and an IC50 (U937 cells; [3]) of 17.8 µM.

In the case of `O=C(O)C1NCCc2c1[nH]c1ccc(OCc3ccncc3)cc21` (stereo not drawn) [Example 85, 6-(pyridin-4-ylmethoxy)-2,3,4,9-tetrahydro-1H-beta-carboline-1-carboxylic acid hydrochloride], the IC50 (MK-2) is reported as 25.8 µM and the IC50 (U937 cells; [3]) is reported as 48.4 µM.

In the case of `CN(C)C(=O)COc1ccc2[nH]c3c(c2c1)CCNC3C(=O)O` (stereo not drawn) [Example 86, 6-[2-(dimethylamino)-2-oxoethoxy]-2,3,4,9-tetrahydro-1H-beta-carboline-1-carboxylic acid hydrochloride], the IC50 (MK-2) is reported as 27.7 µM and the IC50 (U937 cells; [3]) is reported as greater than 100 µM.

Compound `O=C(O)C1NCCc2c1[nH]c1ccc(Br)cc21` (stereo not drawn) [Example 89, 6-bromo-2,3,4,9-tetrahydro-1H-beta-carboline-1-carboxylic acid compound with ethanol(1:1) hydrochloride] has an IC50 (MK-2) of 28.2 µM and an IC50 (U937 cells; [4]) greater than 100 µM.

For `COC(=O)C1c2[nH]c3ccc(O)cc3c2CCN1C` (stereo not drawn) [Example 129, methyl 6-hydroxy-2-methyl-2,3,4,9-tetrahydro-1H-beta-carboline-1-carboxylate], the IC50 (MK-2) was 98.7 µM and the IC50 (U937 cells; read-out: TNF Release Assay Avg. IC50, LPS-stimulated differentiated U937 cells, TNFα by ELISA) was 0.523 µM.

Compound `COc1ccc2[nH]c3c(c2c1)CCC(C)/C3=N/N` (stereo not drawn) [Example 134, 6-methoxy-2-methyl-2,3,4,9-tetrahydro-1H-carbazol-1-one hydrazone] has an IC50 (MK-2) of 108 µM and an IC50 (U937 cells; [1]) of 7.33 µM.

Compound `COc1ccc2[nH]c3c(c2c1)CCNC3c1nnn[nH]1` (stereo not drawn) [Example 143, 6-methoxy-1-(1H-tetraazol-5-yl)-2,3,4,9-tetrahydro-1H-beta-carboline trifluoroacetate hydrate] has an IC50 (MK-2) of 127 µM and an IC50 (U937 cells; [3]) of no less than 100 µM.

Compound `CC(=O)Oc1ccc2[nH]c3c(c2c1)CCNC3C(=O)O` (stereo not drawn) [Example 156, 6-(acetyloxy)-2,3,4,9-tetrahydro-1H-beta-carboline-1-carboxylic acid trifluoroacetate] has an IC50 (MK-2) of 167 µM, an IC50 (U937 cells; [3]) of 100 µM and an IC50 (U937 cells; [1]) of 100 µM.

In the case of `COc1ccc2[nH]c3c(c2c1)CCN(C)C3C(N)=O` (stereo not drawn) [Example 170, 6-methoxy-2-methyl-2,3,4,9-tetrahydro-1H-beta-carboline-1-carboxamide], the IC50 (MK-2) is reported as greater than 200 µM and the IC50 (U937 cells; [4]) is reported as greater than 100 µM.

`COC(=O)C1NCCc2c1[nH]c1ccc(OCc3ccccc3)cc21` (stereo not drawn) [Example 175, methyl 6-(benzyloxy)-2,3,4,9-tetrahydro-1H-beta-carboline-1-carboxylate hydrochloride] showed an IC50 (MK-2) greater than 200 µM and an IC50 (U937 cells; [4]) of 26.5 µM.

Compound `COC(=O)C1c2[nH]c3ccc(OCc4ccccc4)cc3c2CCN1C` (stereo not drawn) [Example 176, methyl 6-(benzyloxy)-2-methyl-2,3,4,9-tetrahydro-1H-beta-carboline-1-carboxylate] has an IC50 (MK-2) greater than 200 µM and an IC50 (U937 cells; [4]) of 36.4 µM.

For `CCCC1CNC(C(=O)OC)c2[nH]c3ccc(OC)cc3c21` (stereo not drawn) [Example 188, methyl 6-methoxy-4-propyl-2,3,4,9-tetrahydro-1H-beta-carboline-1-carboxylate], the IC50 (MK-2) was greater than 200 µM and the IC50 (U937 cells; [3]) was 13.3 µM.

`COC(=O)C1NCC(C)c2c1[nH]c1ccc(OC)cc21` (stereo not drawn) [Example 189, methyl 6-methoxy-4-methyl-2,3,4,9-tetrahydro-1H-beta-carboline-1-carboxylate] gave an IC50 (MK-2) greater than 200 µM and an IC50 (U937 cells; [3]) of 53.2 µM.

For `COc1ccc2[nH]c3c(c2c1)C1CCN(C1)C3C(=O)NCc1ccccc1` (stereo not drawn) [Example 243, N-benzyl-7-methoxy-3,4,5,10-tetrahydro-1H-2,5-methanoazepino[3,4-b]indole-1-carboxamide hydrochloride], the IC50 (U937 cells; [2]) was greater than 100 µM.
